This passage reports DC50 results from patent publication US12643903B2, “Bifunctional compounds for degradation of EGFR and related methods of use” (BeiGene, Ltd., priority 2020, dated 2026).

For one assay, the system named is EGFR DTC. Nature of the assay: Cell Degradation 3: EGFR degradation in BaF3 cells (DTC), HTRF assay. The format is cell-based. The conditions noted are these: 16 h treatment, EGFR degradation by HTRF. As for the experimental part:
(§1) Cell Degradation 3 Cell Treatment
(§2) BaF3 cells are treated with compounds diluted in 0.2% DMSO, dilution is done according to the following protocol: (1) make 500× stock solution in DMSO from 5 mM by 4-fold dilution, total 8 doses were included; (2) make 2× solution in cell culture medium by transferring 0.5 μl 500× stock solution into 125 μl medium; (3) 30 μl of 2× solution is added to cells and incubate for 16 h.
(§3) After 16 h treatment, add 20 μl 4×lysis buffer to each well; seal the plate and incubate 1 hour at room temperature on a plate shaker; Once the cells are lysed, 16 μL of cell lysate are transferred to a PE 384-well HTRF detection plate (for triple mutant cells, the lysate were diluted by the qual volume 1×lysis buffer before transfer); 4 μL of pre-mixed HTRF antibodies are added to each well; Cover the plate with a plate sealer, spin 1000 rpm for 1 min, Incubate overnight at room temperature; Read on BMG PheraStar with HTRF protocol (337 nm-665 nm-620 nm).
(§4) The IC50 (DC50) value of a compound can be obtained by fitting the following equation Y=Bottom+(TOP−Bottom)/(1+((IC50/X)^hillslope))
(§5) Wherein, X and Y are known values, and IC50, Hillslope, Top and Bottom are the parameters obtained by fitting with software. Y is the inhibition percentage (calculated from the equation), X is the concentration of the compound; IC50 is the concentration of the compound when the 50% inhibition is reached. The smaller the IC50 value is, the stronger the inhibitory ability of the compound is. Vice versa, the higher the IC50 value is, the weaker the ability the inhibitory ability of the compound is; Hillslope represents the slope of the fitted curve, generally around 1*; Bottom represents the minimum value of the curve obtained by data fitting, which is generally 0%±20%; Top represents the maximum value of the curve obtained by data fitting, which is generally 100%±20%. The experimental data were fitted by calculating and analyzing with Dotmatics data analysis software.
(In general: Time-resolved FRET reads energy transfer from a long-lived donor to a nearby acceptor.)

A further assay addresses T1, EGFR LTC (Homo sapiens, UniProt P00533, C797S/L858R/T790M).
T1 construct: expressed in transfected cells; host or cells: BaF3
The experiment in a line: Cell Degradation 3: EGFR degradation in BaF3 cells (LTC), HTRF assay. The format is cell-based. The conditions noted are these: 16 h treatment, EGFR degradation by HTRF. As for the experimental part: as §1, §2, §3, §4, §5

T1 sequence (P00533 25-1210 T790M/C797S/L858R): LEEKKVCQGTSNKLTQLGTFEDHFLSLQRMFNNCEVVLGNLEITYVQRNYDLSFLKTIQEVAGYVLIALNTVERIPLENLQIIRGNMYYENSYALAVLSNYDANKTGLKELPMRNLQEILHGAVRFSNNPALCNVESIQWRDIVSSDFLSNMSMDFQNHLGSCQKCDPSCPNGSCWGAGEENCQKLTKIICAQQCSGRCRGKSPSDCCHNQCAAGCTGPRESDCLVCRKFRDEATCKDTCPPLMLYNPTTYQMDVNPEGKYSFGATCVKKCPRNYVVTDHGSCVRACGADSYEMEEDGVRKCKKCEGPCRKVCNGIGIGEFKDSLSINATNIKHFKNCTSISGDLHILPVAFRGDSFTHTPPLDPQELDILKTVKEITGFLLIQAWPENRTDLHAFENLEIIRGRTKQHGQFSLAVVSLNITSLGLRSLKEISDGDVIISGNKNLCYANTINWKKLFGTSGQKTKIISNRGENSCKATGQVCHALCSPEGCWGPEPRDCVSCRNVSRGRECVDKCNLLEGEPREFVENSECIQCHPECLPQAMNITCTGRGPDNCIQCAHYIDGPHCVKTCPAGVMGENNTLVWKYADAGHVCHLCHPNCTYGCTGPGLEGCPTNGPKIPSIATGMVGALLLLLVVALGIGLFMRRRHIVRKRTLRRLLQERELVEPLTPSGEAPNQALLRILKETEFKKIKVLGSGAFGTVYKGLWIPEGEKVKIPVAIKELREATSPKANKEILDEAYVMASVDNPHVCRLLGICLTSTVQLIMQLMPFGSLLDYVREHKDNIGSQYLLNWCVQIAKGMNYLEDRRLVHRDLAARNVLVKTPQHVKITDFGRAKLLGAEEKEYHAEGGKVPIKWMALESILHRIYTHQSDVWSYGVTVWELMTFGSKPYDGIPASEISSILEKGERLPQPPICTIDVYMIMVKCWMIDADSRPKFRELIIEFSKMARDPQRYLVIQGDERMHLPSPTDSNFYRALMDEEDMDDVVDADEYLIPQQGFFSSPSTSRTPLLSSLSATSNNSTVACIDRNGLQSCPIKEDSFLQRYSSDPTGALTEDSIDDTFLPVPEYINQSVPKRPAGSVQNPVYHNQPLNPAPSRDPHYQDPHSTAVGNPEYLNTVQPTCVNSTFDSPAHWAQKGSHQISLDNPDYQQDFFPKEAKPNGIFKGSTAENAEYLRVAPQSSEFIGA

In the case of `COc1cc(N2CCC(N3CCN(CCc4cc(F)c(C5CCC(=O)NC5=O)cc4F)CC3)CC2)c(C)cc1Nc1ncc(Br)c(Nc2cccc3c2N(S(C)(=O)=O)CC3)n1` (stereo not shown) [Example 155, 3-(4-(2-(4-(1-(4-((5-bromo-4-((1-(methylsulfonyl)indolin-7-yl)amino)pyrimidin-2-yl)amino)-5-methoxy-2-methylphenyl)piperidin-4-yl)piperazin-1-yl)ethyl)-2,5-difluorophenyl)piperidine-2,6-dione], the DC50 was determined as 19 nM in the assay with EGFR DTC and 56 nM on EGFR LTC.
In the same order, the values of `COc1cc(N2CCC(N3CCN(C[C@H]4CCN(c5ccc6c(c5)C(=O)N(C5CCC(=O)NC5=O)C6=O)C4)CC3)CC2)c(C)cc1Nc1ncc(Br)c(Nc2cccc3c2N(S(C)(=O)=O)CC3)n1` (stereo partly drawn) [Example 156, 5-((R)-3-((4-(1-(4-((5-bromo-4-((1-(methylsulfonyl)indolin-7-yl)amino)pyrimidin-2-yl)amino)-5-methoxy-2-methylphenyl)piperidin-4-yl)piperazin-1-yl)methyl)pyrrolidin-1-yl)-2-(2,6-dioxopiperidin-3-yl)isoindoline-1,3-dione] are 21 nM and 33 nM.
With `COc1cc(N2CCC(N3CCN(CCN4CCC(c5ccc(NC6CCC(=O)NC6=O)cc5)CC4)CC3)CC2)c(C)cc1Nc1ncc(Br)c(Nc2cccc3c2N(S(C)(=O)=O)CC3)n1` (stereo not shown) [Example 157, 3-((4-(1-(2-(4-(1-(4-((5-bromo-4-((1-(methylsulfonyl)indolin-7-yl)amino)pyrimidin-2-yl)amino)-5-methoxy-2-methylphenyl)piperidin-4-yl)piperazin-1-yl)ethyl)piperidin-4-yl)phenyl)amino)piperidine-2,6-dione], the figures for the DC50 with EGFR DTC and on EGFR LTC were 300 nM and 396 nM, respectively.
Regarding `COc1cc(N2CCC(N3CCN(C(=O)[C@H]4C[C@H](N(C)c5ccc6c(c5)C(=O)N(C5CCC(=O)NC5=O)C6=O)C4)CC3)CC2)c(C)cc1Nc1ncc(Br)c(Nc2cccc3c2N(S(C)(=O)=O)CC3)n1` (stereo partly shown) [Example 158, 5-(((1r,3r)-3-(4-(1-(4-((5-bromo-4-((1-(methylsulfonyl)indolin-7-yl)amino)pyrimidin-2-yl)amino)-5-methoxy-2-methylphenyl)piperidin-4-yl)piperazine-1-carbonyl)cyclobutyl)(methyl)amino)-2-(2,6-dioxopiperidin-3-yl)isoindoline-1,3-dione], the DC50 with EGFR DTC worked out at 19 nM; on EGFR LTC, 41 nM.
The matching figures for `CCc1cc(Nc2ncc(Br)c(Nc3cccc4c3N(S(C)(=O)=O)CC4)n2)c(OC)cc1N1CCC(N2CCN(CCC3CCN(c4cc(F)c(C5CCC(=O)NC5=O)c(F)c4)CC3)CC2)CC1` (stereo not shown) [Example 160, 3-(4-(4-(2-(4-(1-(4-((5-bromo-4-((1-(methylsulfonyl)indolin-7-yl)amino)pyrimidin-2-yl)amino)-2-ethyl-5-methoxyphenyl)piperidin-4-yl)piperazin-1-yl)ethyl)piperidin-1-yl)-2,6-difluorophenyl)piperidine-2,6-dione]: 150 nM and 162 nM.
The matching figures for `COc1cc(N2CCC(N3CCN(CCc4ccc(C5CCC(=O)NC5=O)c(F)c4)CC3)CC2)c(C)cc1Nc1nc(Nc2cccc3c2N(S(C)(=O)=O)CC3)c2cc[nH]c2n1` (stereo not shown) [Example 162, 3-(2-fluoro-4-(2-(4-(1-(5-methoxy-2-methyl-4-((4-((1-(methylsulfonyl)indolin-7-yl)amino)-7H-pyrrolo[2,3-d]pyrimidin-2-yl)amino)phenyl)piperidin-4-yl)piperazin-1-yl)ethyl)phenyl)piperidine-2,6-dione]: 78 nM and over 10000 nM.
In the same order, the values of `COc1cc(N2CCC(N3CCN(C[C@@H]4CCN(c5ccc6c(c5)C(=O)N(C5CCC(=O)NC5=O)C6=O)C4)CC3)CC2)c(C)cc1Nc1ncc(Br)c(Nc2cccc3c2N(S(C)(=O)=O)CC3)n1` (stereo partly drawn) [Example 164, 5-((S)-3-((4-(1-(4-((5-bromo-4-((1-(methylsulfonyl)indolin-7-yl)amino)pyrimidin-2-yl)amino)-5-methoxy-2-methylphenyl)piperidin-4-yl)piperazin-1-yl)methyl)pyrrolidin-1-yl)-2-(2,6-dioxopiperidin-3-yl)isoindoline-1,3-dione] are 52 nM and 60 nM.
With `COc1cc(N2CCC(N3CCN(C[C@H]4C[C@H](N(C)c5ccc6c(c5)C(=O)N(C5CCC(=O)NC5=O)C6=O)C4)CC3)CC2)c(C)cc1Nc1ncc(Br)c(Nc2cccc3c2N(S(C)(=O)=O)CC3)n1` (stereo partly shown) [Example 165, 5-(((1r,3r)-3-((4-(1-(4-((5-bromo-4-((1-(methylsulfonyl)indolin-7-yl)amino)pyrimidin-2-yl)amino)-5-methoxy-2-methylphenyl)piperidin-4-yl)piperazin-1-yl)methyl)cyclobutyl)(methyl)amino)-2-(2,6-dioxopiperidin-3-yl)isoindoline-1,3-dione], the DC50 in the assay with EGFR DTC came out at 91 nM; at EGFR LTC it was 100 nM.
In the same order, the values of `COc1cc(N2CCC(N3CCN(CCOc4cccc5c4C(=O)N(C4CCC(=O)NC4=O)C5=O)CC3)CC2)c(C)cc1Nc1ncc(Br)c(Nc2cccc3c2N(S(C)(=O)=O)CC3)n1` (stereo not shown) [Example 166, 4-(2-(4-(1-(4-((5-bromo-4-((1-(methylsulfonyl)indolin-7-yl)amino)pyrimidin-2-yl)amino)-5-methoxy-2-methylphenyl)piperidin-4-yl)piperazin-1-yl)ethoxy)-2-(2,6-dioxopiperidin-3-yl)isoindoline-1,3-dione] are 175 nM and 247 nM.
For the compound `COc1cc(N2CCC(N3CCN(C4CCN(c5ccc6c(c5)C(=O)N(C5CCC(=O)NC5=O)C6=O)CC4)CC3)CC2)c(C)cc1Nc1ncc(Br)c(Nc2cccc3c2N(S(C)(=O)=O)CC3)n1` (stereo not shown) [Example 167, 5-(4-(4-(1-(4-((5-bromo-4-((1-(methylsulfonyl)indolin-7-yl)amino)pyrimidin-2-yl)amino)-5-methoxy-2-methylphenyl)piperidin-4-yl)piperazin-1-yl)piperidin-1-yl)-2-(2,6-dioxopiperidin-3-yl)isoindoline-1,3-dione], the figures for the DC50 in the assay with EGFR DTC and on EGFR LTC were 225 nM and over 10000 nM, respectively.
The matching figures for `COc1cc(N2CCC(N3CCN(CC4CN(c5ccc(C6CCC(=O)NC6=O)c(F)c5)C4)CC3)CC2)c(C)cc1Nc1ncc(Br)c(Nc2cccc3c2N(S(C)(=O)=O)CC3)n1` (stereo not shown) [Example 169, 3-(4-(3-((4-(1-(4-((5-bromo-4-((1-(methylsulfonyl)indolin-7-yl)amino)pyrimidin-2-yl)amino)-5-methoxy-2-methylphenyl)piperidin-4-yl)piperazin-1-yl)methyl)azetidin-1-yl)-2-fluorophenyl)piperidine-2,6-dione]: 39 nM and 57 nM.
Turning to `COc1cc(N2CCC(N3CCN(C(=O)[C@H]4C[C@H](N(C)c5ccc(C6CCC(=O)NC6=O)cc5)C4)CC3)CC2)c(C)cc1Nc1ncc(Br)c(Nc2cccc3c2N(S(C)(=O)=O)CC3)n1` (stereo partly shown) [Example 170, 3-(4-(((1r,3r)-3-(4-(1-(4-((5-bromo-4-((1-(methylsulfonyl)indolin-7-yl)amino)pyrimidin-2-yl)amino)-5-methoxy-2-methylphenyl)piperidin-4-yl)piperazine-1-carbonyl)cyclobutyl)(methyl)amino)phenyl)piperidine-2,6-dione], the values for the DC50 in the assay on EGFR DTC and on EGFR LTC were 8 nM and 23 nM, respectively.
For the compound `COc1cc(N2CCC(N3CCN(C(=O)C4CN(c5ccc6c(c5)C(=O)N(C5CCC(=O)NC5=O)C6)C4)CC3)CC2)c(C)cc1Nc1ncc(Br)c(Nc2cccc3c2N(S(C)(=O)=O)CC3)n1` (stereo not shown) [Example 171, 3-(6-(3-(4-(1-(4-((5-bromo-4-((1-(methylsulfonyl)indolin-7-yl)amino)pyrimidin-2-yl)amino)-5-methoxy-2-methylphenyl)piperidin-4-yl)piperazine-1-carbonyl)azetidin-1-yl)-1-oxoisoindolin-2-yl)piperidine-2,6-dione], the DC50 amounted to 4 nM in the assay on EGFR DTC and 9 nM at EGFR LTC.
Turning to `COc1cc(N2CCC(N3CCN(CCNc4cccc5c4CN(C4CCC(=O)NC4=O)C5=O)CC3)CC2)c(C)cc1Nc1ncc(Br)c(Nc2cccc3c2N(S(C)(=O)=O)CC3)n1` (stereo not shown) [Example 173, 3-(4-((2-(4-(1-(4-((5-bromo-4-((1-(methylsulfonyl)indolin-7-yl)amino)pyrimidin-2-yl)amino)-5-methoxy-2-methylphenyl)piperidin-4-yl)piperazin-1-yl)ethyl)amino)-1-oxoisoindolin-2-yl)piperidine-2,6-dione], the figures for the DC50 in the assay on EGFR DTC and at EGFR LTC were 15 nM and 27 nM, respectively.

By DC50 is commonly meant the concentration at which degradation of the target reaches its halfway point.
